experiment: in vitro; conditions: human, hela cells, % viability

Structure (SMILES)	viability at 28.5 h, 10 µM [%]
O=C(O)COCCn1cc(-c2ccc(Cl)cc2)cn1 [CBK021914]	84.5
CC(C)(C)c1csc(N2CCSCC2)n1 [CBK021950]	119
Oc1ccccc1-c1ccnc(SC(F)F)n1 [CBK021971]	81.8
C/C(=N\N=C1\N=C(O)C(CC(=O)O)S1)c1ccco1 (stereo not shown) [CBK021973]	96.8
Cc1ccc2nc(NC(=O)C(C)(C)C)nc(O)c2c1 [CBK021975]	97.7
COc1cc(NC(=S)P(=O)(c2ccccc2)c2ccccc2)c(OC)cc1Cl [CBK021976]	95.6
Cc1nc2ccccc2n1C(F)(F)C(F)F [CBK022023]	116
Oc1cc(Cl)c(-c2ccccc2)nn1 [CBK022028]	88.4
C/N=C1/c2cn3ccccc3c2CCN1C [CBK022058]	116
O=C(c1ccno1)n1nccc1-c1cc(-c2ccccc2)no1 [CBK022074]	101
Cc1nnc(SCC(=O)Nc2nnc(C(C)C)s2)[nH]c1=O [CBK022107]	87
COc1cccc(-n2cnc3cccc(N)c32)c1 [CBK022114]	94.9
COc1ccc2cc([C@@H](O)C[C@@H](C)O)c(Cl)nc2c1 [CBK022146]	104
CC1(C)C2C(=O)C(c3ccccn3)=C(N)N2C(C)(C)C1(C)C (stereo not shown) [CBK022153]	110
Cn1ccc(C2=C(N)C(C#N)C3=C(CC(C)(C)CC3=O)O2)c1 (stereo not shown) [CBK022168]	109
COc1ccc2c(-c3cc(N)sn3)c(C)oc2c1 [CBK022260]	83.8
Cc1cc(C)nc(N2CCN(C(=O)CCC(=O)NCc3cccc(C(F)(F)F)c3)CC2)n1 [CBK022261]	107
O=C(NC1CCCCC1)c1s/c(=N/O)nnc1Nc1ccccc1 [CBK022275]	93.8
CCN(CC)C(=O)c1c(F)ccc(F)c1C(=O)O [CBK022303]	85
O=C1C2C=NNC2C(=O)N1c1ccccc1 (stereo not shown) [CBK022326]	103
COCc1cc(O)nc(Cc2c(Cl)cccc2Cl)n1 [CBK022389]	96.7
O=C(c1ccc(Br)o1)n1cc(C(F)(F)F)ccc1=O [CBK022391]	108
Nc1nc2sc3c(c2cc1C(=O)N1CCOCC1)CCCC3 [CBK022399]	96.1
COc1ccc(S(=O)(=O)N(C)c2ccc(N3CCNCC3)c3ccccc23)cc1 [CBK022404C]	94.9
CC1(C)CC(=O)C2=C(C1)CC1(C)CC(C)(C)CC2(Nc2ccccn2)C1 (stereo not shown) [CBK022425]	121

Structure (SMILES)	viability at 28.5 h, 10 µM [%]
Cc1ccccc1N1C(=O)c2ccc(Br)cc2C1=O [CBK022430]	90.9
Cc1cc(NS(=O)(=O)c2cccc(Cl)c2C)on1 [CBK022499]	92
c1cc(OCc2cccs2)cc(N2CCNCC2)c1 [CBK022557F]	89.3
c1cc(COc2ccc(N3CCNCC3)nn2)co1 [CBK022562]	95.7
CS(=O)(=O)N1CC2(CCN(C(=O)[C@@H](N)COCc3ccccc3)CC2)c2ccccc21 [CBK022597C]	104
O=C1OCc2ccc3c(c21)COCO3 [CBK022696]	107
CC(=O)NC(Cc1c[nH]c2ccccc12)/C(C)=N/O (stereo not shown) [CBK022711]	120
Cc1ccc(S(=O)(=O)Nc2nnc(C3CCCCC3)s2)cc1 [CBK022722]	101
CC1=CC(C)C(=S)NC(C)=C1 (stereo not shown) [CBK022735]	91
CC1=Nc2ccc(Cl)cc2C(C)(C)O1 [CBK022763C]	107
Nc1ccccc1NC(=O)NC(=O)c1ccccc1 [CBK022767]	94
Cc1cc(C(=O)O)c(C)cc1N [CBK022781]	95.5
C/N=c1\cccccc1NC [CBK022788]	110
CCN(CC)CCC(C(=O)c1ccccc1)S(C)(=O)=O (stereo not shown) [CBK022802]	88.8
NC(=S)c1ccc2c(c1)OCO2 [CBK022803]	86.3
COc1ccc2c(c1)CCC1(C)C2=C(C(=O)O)CC1O (stereo not shown) [CBK022814]	103
COc1ccc(S(=O)(=O)NC(=O)NCC2CC3C=CC2C3)cc1 (stereo not shown) [CBK022821]	88.7
OCC1CCC(O)C(CO)N1 (stereo not shown) [CBK022827C]	86.5
CCCCNC(=O)OC1CCN(CCc2ccccc2)CC1 [CBK022839C]	89.2
CCCCSc1nnc(NS(=O)(=O)c2ccc(NC(C)=O)cc2)s1 [CBK022853]	98.5
CN(C)CCCOC(=O)CN1c2ccccc2CCc2ccccc21 [CBK022863C]	97
O=C(O)c1ccc(S(=O)(=O)c2ccc(C(=O)O)c(C(=O)O)c2)cc1C(=O)O [CBK022872]	93.1
CN1c2ccccc2C(c2ccccc2)=NS1(=O)=O [CBK022873]	92.1
Cc1noc(N)c1C1OC(=O)c2ccccc21 (stereo not shown) [CBK022932]	104
COc1ccc(-c2cc[nH]n2)c(OC)c1OC [CBK022957C]	82

Structure (SMILES)	viability at 28.5 h, 10 µM [%]
CCCCNC(=O)NS(N)(=O)=O [CBK022990]	109
CC1=NS(=O)(=O)NC2=C1CCCC2 [CBK022998]	96.6
CCN(CC)CCN1C(=O)CCC2(c3ccccc3)CCC(=O)C=C12 (stereo not shown) [CBK023010C]	105
C/C(=N\NC(=N)N)C(F)(F)F [CBK023019G]	90.1
Cc1cc(-c2ccccc2)nn(CCN2CCOCC2)c1=O [CBK023022C]	88
O=C1CN(Cc2ccc(Cl)cc2)CCO1 [CBK023036C]	88.7
O=C1c2ccc(S(=O)(=O)c3ccc4c(c3)C(=O)N(CCO)C4=O)cc2C(=O)N1CCO [CBK023065]	112
CCOC1=NCCN2CCc3cccc1c32 [CBK023113]	117
CCOC(=O)CC(O)(c1ccc(OC)cc1)c1cc(C)no1 (stereo not shown) [CBK023133]	107
COc1cccc(CCNC(=O)CCN2C(=O)CCC2=O)c1 [CBK023150]	91.8
C#CCn1c(=O)n(C)n(C)c1=O [CBK023151]	89.4
CSc1nc(Cl)c(-c2ccccc2)c(N(C)C)n1 [CBK023169]	96.9
CC1CCCCN1CC(=O)N(C)C(C)COc1ccc(Cl)cc1 (stereo not shown) [CBK023201]	87.8
CNCCOc1ccccc1O [CBK023215C]	99.8
CO/C(=N\S(=O)(=O)c1ccccc1)c1ccccc1 [CBK023221]	89.4
CCCN(CCC)C(=O)c1nc(C)c(C(=O)N(CCC)CCC)nc1C [CBK023232]	89.2
CCN(CC)CCN(C(=O)N1CCCC1)c1c(C)cccc1C [CBK023237C]	98.7
O=C(CCCN[C@H]1CC[C@](O)(c2ccc(F)cc2)CC1)c1ccc(F)cc1 [CBK023258C]	90.7
O=C(N/N=C\c1c(F)cccc1Cl)c1ccncc1 [CBK023263]	84.7
CCC1(c2ccccc2)OCC(C2CCCCN2)O1 (stereo not shown) [CBK023284C]	85.7
Cc1ccc(S(=O)(=O)N2CC(=O)NC2=S)cc1 [CBK023293]	94.5
Cc1cc(=O)c(C#N)c(C)[nH]1 [CBK023326]	92.4
CC(=O)CCc1cc(CCC(N)=O)on1 [CBK023350]	90.3
CN(C)CCN1C(=O)CCc2ccccc21 [CBK023390C]	102
CN(C)C(=O)C1(c2ccccc2)CCNC1 (stereo not shown) [CBK023394C]	114

Structure (SMILES)	viability at 28.5 h, 10 µM [%]
CC1(C)Cc2ccccc2C(NCCC(=O)O)=N1 [CBK023412]	97.9
Cc1ccc(S(=O)(=O)NCCC(=O)NO)cc1 [CBK023472]	110
CCCC1SCC(=O)N1c1nncs1 (stereo not shown) [CBK023497]	95.4
S=C(Cc1csc2ccccc12)NC1CCCCC1 [CBK023515]	88.7
Cc1csc2ncnc(N3CCN(C(=O)C4CC4)CC3)c12 [CBK023593]	112
N#Cc1nccnc1S(=O)(=O)CCO [CBK023595]	90.1
CC(=O)N1N=C(c2cccnc2)OC1(C)C [CBK023619]	90.4
NC(=O)c1sc2nc(-c3cccnc3)ccc2c1N [CBK023645]	66
CCOC(=O)c1cnn2c(N)c(C(N)=O)nnc12 [CBK023694]	98.2
CC(C)/C=N/N=C1\NC(=O)CS1 [CBK023706]	90.7
COC(=O)c1ccccc1OCCc1csc(NS(=O)(=O)c2cccc(Cl)c2C)n1 [CBK023735]	116
O=C1CCCN1CC#CCN1CCN(Cc2ccccc2)CC1 [CBK023770C]	96.2
CCN(CC)CCn1cc(C2CCCN(C)CC2)c2ccccc21 (stereo not shown) [CBK023788B]	91.1
O=C(O)c1cnc(NCC2CCCCCC2)[nH]c1=O [CBK023792]	88.8
CN/C(=N\C1CCCCC1)N1CCOCC1 [CBK023800G]	92.2
CCCCNC(=S)NC1CC[C@@]2(Cc3ccc(OC)c(OC)c3)CCN(C)[C@H]2C1 (stereo partly shown) [CBK023805]	81.5
CCNC(=S)N[C@@H]1CC[C@@]2(Cc3ccc(OC)c(OC)c3)CCN(C)[C@H]2C1 [CBK023811]	94.5
CN(C)CCN(C)[C@H]1CCCC[C@@H]1N(C)C(=O)Cc1ccc(Br)cc1 [CBK023819C]	93.4
COc1cc(CCN2CCCCC2)c(C(C)n2cncn2)cc1OC (stereo not shown) [CBK023837G]	90.3
CNC(=O)Nc1cccc(S(N)(=O)=O)c1 [CBK023839]	89.1
Cc1nc(NCc2ccc(C(F)(F)F)cc2)nc(N2CCOCC2)n1 [CBK023863]	91.9
CCN(CC)CCCNc1nc2ccc(O)cc2s1 [CBK023880C]	105
CC(C)(C)NCC(O)CO/N=C(/c1ccncc1)c1ccc(Br)cc1 (stereo not shown) [CBK023914G]	95.7

same assay, conditions: human, hela cells, % viability, bulk resorufin, single well

Structure (SMILES)	viability at 28.5 h, 10 µM [%]
O=C(O)C(O)(c1ccccc1)c1cccs1 (stereo not shown) [CBK022808]	108
Cc1cc(Cl)c(OC(=O)NC2CCCCC2)cc1C [CBK022948]	90.1
